Experimental findings from US20020168329A1, “Skin composition” (Unilever Home & Personal Care USA, Division of Conopco, Inc., priority 2001, published 2002) are described below.

The subject of this experiment is Volunteers with oily skin type. Kind of experiment: Oil (sebum) secretion on the skin measured with Sebumeter SM 810 PC after one week of twice-daily cream use. The format is in vivo, human. As to conditions: after 2 hours; conclusion from Table 1. On the procedure: Method of Testing Oil Secretion:
The above mentioned formulations (Examples 1 to 4) were tested for their efficacy in reducing the oil secretion on the skin using a sebumeter by the following protocol.
Volunteers with oily skin type were recruited. The initial sebum was measured with Sebumeter SM 810 PC on the cheeks, and the selection was made such that they had approximately similar sebum profile. The panellists were asked to use 0.5 g of the assigned cream on their face twice a day, for one week. The sebum profile was measured on the 8th day. The panellists washed their face and the sebum secretion on the skin surface after 2 hours was measured using the Sebumeter SM 810 PC on the cheeks.
Sebumeter is a device for measuring sebum content on skin surface. A piece of plastic film (wound in the form of a cassette) is kept on the skin for 30 sec. By this means the […] measuring area of the plastic film becomes transparent due to absorbed sebum. […] Sebumeter SM 810 PC immediately indicates sebum content between 50 & 300 μgm/cm^2 % sebum reduction is calculated.
The protocol to measure the % reduction in sebum secretion is as per the procedure described above. The samples of creams described in Examples 4, 5 and 6 were tested for their efficacy in reducing the sebum secretion and the data are presented in Table 3.

For `CCCCCCCCCCCCCOC(=O)c1ccccc1O` [tridecyl salicylate], the “effect in reducing oil secretion on the skin (in words)” value is “significant effect in reducing oil secretion on the skin”. The entry for `NC(=O)c1cccnc1` [niacinamide] is “significant effect in reducing oil secretion on the skin”.
